From patent EP2371816A1, “Aminocyclohexenone, their preparation and use as medicament against oxidative stress” (ABIOGEN PHARMA S.p.A., priority 2010, dated 2011)

Assays:
[1] = system: BAEC cells (bovine aortic endothelial); experiment: In vitro inhibition of CHP-induced oxidative stress (DCF fluorescence) in BAEC cells; assay type: cell-based; conditions: 500 µM CHP, compound 4, 20, 100 and 500 µM, 30 minutes at 37 °C, range given for both cell lines together
Experimental: (§1) The method used was essentially the one reported by Rüweler M. et al. ("Inhibition of peroxide-induced radical generation by plant polyphenols in C6 astroglioma cells" (2008) Toxicol in vitro 22, 1377-81), with a few minor modifications.
(§2) The cells were seeded in phenol-red free DMEM (Sigma Aldrich) into 96-well plates with 5% FBS and 20 mM HEPES at a density of 40,000 cells/well. After 48 hours, the medium was substituted by HBSS (Hanks' Balanced Salt Solution, Sigma) containing 10 µM of dihydro-2',7'-dichlorofluorescein diacetate (H2DCF-DA, Sigma Aldrich) and incubated in darkness for 30 minutes at 37 °C, in order to load the cells with fluorescent dye. H2DCF-DA was hydrolyzed enzymatically by the intracellular esterases to form non-fluorescent H2DCF, which was then rapidly oxidized to form 2',7'-dichlorofluorescein (DCF) being highly fluorescent in the presence of reactive species (RS). The intensity of DCF fluorescence is directly proportional to the amount of RS formed.
(§3) After carrying out two washes, the cells were exposed to 500 µM of CHP and various concentrations (4, 20, 100 and 500 µM) of the compounds of the invention for 30 minutes at 37 °C. Fluorescence was then measured, after cell washing, by a microplate reader at an excitation wavelength of 485 nm and an emission wavelength of 535 nm.
(§4) Six wells per plate per concentration of test composition (compound + CHP) and per control (HBSS without CHP) were measured and 12 wells were used as reference for CHP-induced stress. In addition, each 96-well plate contained 6 wells that received the highest concentration of the tested compounds without CHP, to investigate whether the compounds of the invention alone were able to induce cellular radical formation.
(§5) When using this assay, it should be borne in mind that DCF fluorescence is a generalized indicator of oxidative stress rather than of any particular reactive species, i.e. it is not a direct assay for H2O2 or other reactive species (Halliwell B, Whiteman M. (2004) "Measuring reactive species and oxidative damage in vivo and in cell culture: how should you do it and what do the results mean?" Br. J. Pharmacol. 142 231-255). Therefore, when an increase in DCF fluorescence induced by exposure of cells to CHP was measured, as was undertaken in these assays, it was not possible to deduce which reactive species was responsible. Inhibition of CHP-induced fluorescence was evaluated by means of different concentrations of the compounds of the invention and comparative compounds such as Trolox and edaravone.

C6 cells (rat glioma) = experiment: In vitro inhibition of CHP-induced oxidative stress (DCF fluorescence) in C6 cells; assay type: cell-based; conditions: 500 µM CHP, compound 4, 20, 100 and 500 µM, 30 minutes at 37 °C, range given for both cell lines together
Experimental: as §1, §2, §3, §4, §5

[2] = TEAC method (Trolox Equivalent Antioxidant Capacity Assay); conditions: ratio of gradient to gradient of reference (trolox); 37 °C, 650 nm, pH 4.5
Text: This assay is used to measure the total antioxidant activity of pure substances, biological fluids and plant compounds and is based on the reaction of antioxidants with the cation radical ABTS^˙+ (2,2'-azinobis(3-ethylbenzothiazolin-6-sulphonate)). This cation radical is metastable and has to be generated just before the experiment by reacting ABTS with hydrogen peroxide in the presence of HRP.
This radical can be reduced, with consequent loss of absorbance, by an antioxidant whose scavenging capacity can be measured spectrophotometrically at 650 nm. The test is carried out at 37 °C and the results are obtained from a comparison with Trolox (a synthetic antioxidant and hydrophilic analogue of vitamin E).
The ABTS solution S1 was prepared as follows: • 20 mg of ABTS were added to 50 mM of citric acid buffer (40 ml) at pH=4.5 and to the resulting solution there was added an aqueous solution of HRP (4.4 mg, 400 µl) and an aqueous solution of H2O2 (10 µl of a 30% solution diluted with 16.3 ml of water).
For each of the compounds (2), (6) and (7), as synthesized above, there was prepared a 600 µM solution in water, methanol or DMSO according to its solubility, as well as a Trolox solution as reference.
Each solution was diluted to produce 6 solutions each at a concentration between 25 µM and 300 µM. From each of the diluted and divided solutions, there were withdrawn 20 µl to which 200 µl of solution S1 were then added.
The decrease in absorbance of each solution thus obtained was monitored at 650 nm until a stable value was reached (about 90 minutes).
For each set of 6 solutions and for the reference trolox solution, the absorption was given in graph form as a function of the amount of compound (nmol) in the solution. The gradient of the straight line obtained by linear interpolation was determined according to the least squares method. The TEAC value of each compound of the invention is given in the table below and is expressed as the ratio between the gradient of the resulting straight line and the gradient of the reference (trolox) straight line.

[3] = system: cerebral oxidative stress induced in mice by doxorubicin; experiment: In vivo assay of cerebral oxidative stress induced in mice by doxorubicin
Experimental: The assay was carried out on compounds (1) and (3)-(6) and on edaravone (E) as comparative compound.
10 mice were used for each treatment group. For each compound 50 mg/kg were administered intraperitoneally (IP) for three consecutive days (day 0, 1 and 2); half the animals (5) also received IP 16.7 mg/kg of doxorubicin immediately after the first treatment (day 0). On the day after the last administration (day 3) the animals were killed by neck dislocation and the brains were removed, weighed and frozen in liquid nitrogen.
For the analyses of oxidative stress, 100 mg/ml of brain homogenate was prepared in Hebe buffer (pH 7.4 EDTA/HEPES^(**)) containing a mixture of enzyme inhibitors (Leupeptin, Pepstatin, Aprotinin, BHA). • ^(*) Hypotonic Extraction Buffer • ^(**) 4-2-hydroxyethyl-1-piperazinyl-ethanesulphonic acid
The evaluation parameters were: • BrW/BWi: ratio between final brain weight and initial body weight (day 0); • Prot. Hmg: total proteins in the homogenate (BCA method, i.e. bicinchoninic acid); • Prot. Ox: oxidized proteins in the Hmg by means of a colorimetric method using […] (DNPH); • GSH: reduced glutathione in the supernatant (sn) of the Hmg, obtained after precipitation with metaphosphoric acid (MPA), by means of a colorimetric method using […] (DTNB); • CAT: catalase in the Hmg by a colorimetric method using potassium dichromate; • SOD: superoxide dismutase by a colorimetric method using SOD Reagent (xanthine, EDTA, nitroblue tetrazole, Na2CO3, BSA, i.e. bovine serum albumin); • GST: glutathione S-transferase in the supernatant by a colorimetric method using chlorodinitrobenzene (CDNB) and GSH; and • GPx: glutathione peroxidase in the supernatant after addition of GSH and tert butyl hydroperoxide (t-BuOOH), heating and precipitation with MPA; followed by GSH method with DTNB.
All the parameters, with the exclusion of Brain/BWi and Prot. Hmg, were normalized for total Hmg proteins (Table 3). The D value standard deviations and the % incidence relative to V are given in italics.
The mean % effect, on all the parameters simultaneously, of the triple treatment in the healthy animals, as mean percentage variation relative to the vehicle (table 4). This value is useful as an approximate safety index of the oxidative state of the brain, i.e. the capacity of the compounds of the invention not to alter cerebral homeostasis in healthy animals.
The effect of the tested compounds on the "oxidized" animals was given as % inhibition relative to the percentage variation due to doxorubicin alone. The effect of the compounds on the oxidized animals can be expressed both as a function of the values of the vehicle (healthy, vehicle only) and as a function of the value of its own control (healthy, compound only): • Vehicle: percentage [(Compound+D)/V]x100/[(V+D)/V]x100 • Its own: percentage [(Compound+D)/Compound]x100/[(V+D)/V]x100

[4] = % variation relative to the vehicle, healthy animals, 50 mg/kg IP x3 days (D = doxorubicin alone)

Compound | Inhibition of CHP-induced fluorescence [1] | Inhibition of CHP-induced fluorescence (C6 cells (rat glioma)) | TEAC [2] | Brain/BWi [3, 4] | CAT/pr [3, 4] | GPX/pr [3, 4] | GSH/pr [3, 4] | GST/pr [3, 4] | Prot. Hmg [3, 4] | Prot. Ox/pr [3, 4] | SOD/pr [3, 4] | overall inhibitory effect on the doxorubicin-induced oxidation ([3]; both with respect to the Vehicle and Its own) | Mean % variation relative to the vehicle ([3]; healthy animals, 50 mg/kg IP days 0, 1 and 2, mean over all parameters, approximate safety index (D = doxorubicin alone), 50 mg/kg)
Cc1c(C)c2c(c(C)c1O)CCC(C)(C(=O)O)O2 (stereo not drawn) [Trolox, reference compound] | 10-50% | 10-50% |  |  |  |  |  |  |  |  |  |  | 
CC1=NN(c2ccccc2)C(=O)C1 [edaravone, reference compound] | 10-50% | 10-50% | 0.9 | 2.7% | -5.0% | -6.7% | -5.5% | -3.1% | 3.7% | -2.3% | -2.2% | about 75% | -2.7%
